Measured values published in ChEMBL document CHEMBL1152404, “Structure-Activity Relationship of novel phenylacetic CXCR1 inhibitors” (Bioorg Med Chem Lett, 2009).

Tests used:
[1] = Cytotoxicity against mouse L1.2 cells assessed as cell viability by trypan blue dye exclusion assay; assay type: cell-based; parameters: concentration or dose not given beside the values; settings: read-out: Activity
[2] = Cytotoxicity against of human polymorphonuclear leukocytes assessed as cell viability by trypan blue dye exclusion assay; parameters: concentration or dose not given beside the values; settings: read-out: Activity

O=C(O)Cc1ccccc1Nc1c(F)cccc1F
viability [1]: > 95% | viability [2]: > 95%

Cc1ccc(C(=O)c2ccc(CC(=O)O)n2C)cc1 [TOLMETIN]
viability [1]: > 95% | viability [2]: > 95%

COc1ccc2c(c1)c(CC(=O)O)c(C)n2C(=O)c1ccc(Cl)cc1 [INDOMETHACIN]
viability [1]: > 95% | viability [2]: > 95%

O=C(O)Cc1ccccc1Oc1ccccc1
viability [1]: > 95% | viability [2]: > 95%

CC(C(=O)NC(C)(C)C)c1ccccc1Nc1c(Cl)cccc1Cl (configuration not stated)
viability [1]: > 95% | viability [2]: > 95%

CC(C(=O)NCCCN(C)C)c1ccccc1Nc1c(Cl)cccc1Cl (configuration not stated)
viability [1]: > 95% | viability [2]: > 95%

CC(C(=O)NCCO)c1ccccc1Nc1c(Cl)cccc1Cl (configuration not stated)
viability [1]: > 95% | viability [2]: > 95%

CC(C(N)=O)c1ccccc1Nc1c(Cl)cccc1Cl (configuration not stated)
viability [1]: > 95% | viability [2]: > 95%

Cc1ccccc1Nc1ccccc1CC(=O)O
viability [1]: > 95% | viability [2]: > 95%

O=C(O)Cc1ccccc1Nc1cc(Cl)ccc1Cl
viability [1]: > 95% | viability [2]: > 95%

O=C(O)Cc1ccccc1Nc1ccccc1Cl
viability [1]: > 95% | viability [2]: > 95%

CC(C(=O)NCCC[N+](C)(C)C)c1ccccc1Nc1c(Cl)cccc1Cl (configuration not stated)
viability [1]: > 95% | viability [2]: > 95%

Cc1cccc(C)c1NC(=O)C(C)c1ccccc1Nc1c(Cl)cccc1Cl (configuration not stated)
viability [1]: > 95% | viability [2]: > 95%

CC(C(=O)O)c1ccccc1Nc1c(Cl)cccc1Cl (configuration not stated)
viability [1]: > 95% | viability [2]: > 95%

O=C(O)Cc1cccc(C(=O)c2ccccc2)c1
viability [1]: > 95% | viability [2]: > 95%

O=C(O)Cc1ccccc1Nc1ccccc1F
viability [1]: > 95% | viability [2]: > 95%

O=C(O)Cc1ccccc1Oc1ccccc1Cl
viability [1]: > 95% | viability [2]: > 95%

CC(C)Cc1ccc(CC(=O)O)cc1 [IBUFENAC]
viability [1]: > 95% | viability [2]: > 95%

O=C(O)Cc1ccccc1Cc1c(Cl)cccc1Cl
viability [1]: > 95% | viability [2]: > 95%

O=C(O)Cc1ccccc1Oc1ccccc1F
viability [1]: > 95% | viability [2]: > 95%

Cc1ccc(Cl)c(Nc2ccccc2CC(=O)O)c1Cl
viability [1]: > 95% | viability [2]: > 95%

CC(C(=O)NS(C)(=O)=O)c1ccccc1Nc1c(Cl)cccc1Cl (configuration not stated)
viability [1]: > 95% | viability [2]: > 95%

CS(=O)(=O)NC(=O)Cc1ccccc1Oc1ccccc1F
viability [1]: > 95% | viability [2]: > 95%

CC(C)Cc1ccc([C@@H](C)C(=O)O)cc1 [(R)-IBUPROPHEN]
viability [1]: > 95% | viability [2]: > 95%

O=C(O)Cc1ccccc1Nc1ccccc1
viability [1]: > 95% | viability [2]: > 95%

O=C(O)Cc1ccccc1Nc1c(Cl)cccc1Cl [DICLOFENAC]
viability [1]: > 95% | viability [2]: > 95%
